In PubChem BioAssay (NCI):
“And” between values parts separate entries of the source, which are not always exact repeats. Identical values can stand only once.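 Five concentrations, 48 hours, 96-well plates. The concentration for 50% growth inhibition is given as GI50. TGI is the concentration that stops growth completely.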

Assays:
Test in all cases: DTP human tumour cell line panel, 48 h
SR leukemia = test system: SR leukemia
SK-MEL-28 melanoma = test system: SK-MEL-28 melanoma
RPMI-8226 leukemia = test system: RPMI-8226 leukemia
MOLT-4 leukemia = test system: MOLT-4 leukemia
K-562 leukemia = test system: K-562 leukemia
NCI-H23 lung = test system: NCI-H23 lung
NCI-H460 lung = test system: NCI-H460 lung
MDA-MB-231 breast = test system: MDA-MB-231 breast
IGROV1 ovarian = test system: IGROV1 ovarian
HOP-62 NSCLC = test system: HOP-62 NSCLC

SMILES	GI50 (SR leukemia)	TGI (SK-MEL-28 melanoma)	GI50 (RPMI-8226 leukemia)	GI50 (MOLT-4 leukemia)	TGI (MOLT-4 leukemia) [µM]	GI50 (K-562 leukemia) [µM]	TGI (K-562 leukemia) [µM]	GI50 (NCI-H23 lung)	GI50 (NCI-H460 lung)	TGI (NCI-H460 lung)	GI50 (MDA-MB-231 breast)	TGI (MDA-MB-231 breast)	GI50 (IGROV1 ovarian)	TGI (SR leukemia) [µM]	GI50 (SK-MEL-28 melanoma)	TGI (RPMI-8226 leukemia)	TGI (NCI-H23 lung) [µM]	GI50 (HOP-62 NSCLC)	TGI (HOP-62 NSCLC)	TGI (IGROV1 ovarian) [µM]
CNC(=O)CC1NC(=O)c2csc(n2)-c2ccc(-c3nc(C4=NC(C(=O)N5CCCC5C(N)=O)CO4)cs3)nc2-c2csc(n2)-c2csc(n2)C(C(C)C)NC(=O)CNC(=O)c2csc(n2)C(C(C)C)NC(=O)c2nc1sc2C (configuration not stated)	< 0.001 µM	> 25 µM	< 0.001 µM	1.63 µM	> 25	> 25	> 25	> 25 µM	> 25 µM	> 25 µM	> 25 µM	2.73 µM and > 25 µM	> 25 µM							
COC(=O)CCC1CCC(c2cc(F)ccc2F)(S(=O)(=O)c2ccc(Cl)cc2)CC1 (configuration not stated)	> 100 µM	> 100 µM	41.9 µM	49.8 µM	> 100	> 100	> 100	42.5 µM	52.1 µM	> 100 µM	> 100 µM	> 100 µM	> 100 µM	> 100	> 100 µM	> 100 µM	> 100	> 100 µM	> 100 µM	> 100
CCN(CC)CCn1c2ccccc2c(=O)c2c(O)ccc(O)c21		48.6 µM			69.3		68.5			> 71.9 µM		29.9 µM		26.2		85.4 µM	62.2		86.5 µM	66.3
Cc1cc(Cc2cc(C)cc(C(C)(C)C)c2O)c(O)c(Cc2cc(C)cc(C(C)(C)C)c2O)c1		16.7 µM			5.83		6.33			4.22 µM		4.25 µM		> 28.6		> 20.4 µM	5.34		7.94 µM	14
CC1(O)CC(c2nc(-c3ccc4ccc(-c5ccccc5)nc4c3)c3c(N)nccn23)C1 (configuration not stated)	15.7 µM and 7.92 µM	44.3 µM and > 10 µM	6.55 µM and 3.98 µM	7.16 µM and 3.72 µM	> 80.1		> 100	8.83 µM and 5.03 µM	2.7 µM and 1.5 µM	24.8 µM and > 10 µM	6.97 µM and 5.12 µM	38.1 µM and > 10 µM	19.1 µM and > 10 µM	> 75.2	12 µM and > 10 µM	31.9 µM and > 10 µM	> 80.8	5.75 µM and 7.35 µM	50.6 µM and > 10 µM	> 100
Oc1ccccc1C=Nc1nc(SCc2ccccc2)nc2[nH]ncc12	22.5 µM	> 100 µM	30.8 µM	24.8 µM	> 100	35.2	> 100	61.2 µM	36.9 µM	> 100 µM	29.2 µM	> 100 µM	> 100 µM	> 100	82.8 µM	> 100 µM	> 100	> 100 µM	> 100 µM	> 100
N#CC1=C(N)Oc2c(sc3c(Br)cccc23)C1c1ccc(Br)cc1 (configuration not stated)	0.208 µM	13.3 µM	1.44 µM	0.546 µM	8.11	0.137	3.16	1.58 µM	0.668 µM	4.51 µM	1.21 µM	3.7 µM	0.887 µM	5.91	1.44 µM	16 µM	13.4	0.41 µM	2.62 µM	12.9
